# Results from PubChem BioAssay (NCI).
# “And” between values parts separate entries of the source, which are not always exact repeats. Equal entries are not always repeated.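 Test compounds were applied to cells in 96-well plates for 48 hours at 5 doses. GI50 = concentration required for 50% inhibition of growth. At the TGI there is no net growth.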
# Tests used:
# Experiment in all cases: growth of human tumour cells (NCI), 48 h
# EKVX NSCLC = tested on: EKVX NSCLC
# HL-60(TB) leukemia = tested on: HL-60(TB) leukemia
# HOP-92 NSCLC = tested on: HOP-92 NSCLC
# LOX IMVI melanoma = tested on: LOX IMVI melanoma
# OVCAR-3 ovarian = tested on: OVCAR-3 ovarian
# OVCAR-4 ovarian = tested on: OVCAR-4 ovarian
# OVCAR-8 ovarian = tested on: OVCAR-8 ovarian
# SF-539 CNS = tested on: SF-539 CNS
# SK-MEL-2 melanoma = tested on: SK-MEL-2 melanoma
# SK-MEL-28 melanoma = tested on: SK-MEL-28 melanoma
SMILES,GI50 (EKVX NSCLC) [µM],TGI (EKVX NSCLC) [µM],GI50 (HL-60(TB) leukemia),TGI (HL-60(TB) leukemia) [µM],GI50 (HOP-92 NSCLC) [µM],TGI (HOP-92 NSCLC) [µM],GI50 (LOX IMVI melanoma) [µM],TGI (LOX IMVI melanoma) [µM],GI50 (OVCAR-3 ovarian) [µM],TGI (OVCAR-3 ovarian) [µM],GI50 (OVCAR-4 ovarian) [µM],TGI (OVCAR-4 ovarian) [µM],GI50 (OVCAR-8 ovarian) [µM],TGI (OVCAR-8 ovarian) [µM],GI50 (SF-539 CNS) [µM],TGI (SF-539 CNS) [µM],GI50 (SK-MEL-2 melanoma) [µM],TGI (SK-MEL-2 melanoma) [µM],GI50 (SK-MEL-28 melanoma) [µM],TGI (SK-MEL-28 melanoma) [µM]
NC(=N\N=C/c1ccc(Cl)cc1Cl)/C(N)=N\N=C/c1ccc(Cl)cc1Cl,30.7,> 100,> 100 µM,> 100,6.54,56.1,25.5,> 100,12.3,> 73.8,0.34,1.65,20.7,> 100,8.3,> 100,> 57.1,> 93.6,> 100,> 100
CCOc1cc(/C=C/C(=O)C(C(=O)/C=C/c2ccc(OC(=O)CNc3nnc(C)s3)c(OCC)c2)C(=O)CNc2nnc(C)s2)ccc1OC(=O)CNc1nnc(C)s1,3,15.2,0.554 µM,3.47,2.13,6.6,0.897,2.21,1.24,4.85,3.91,45.1,3.43,14.4,1.17,3.42,2.02,5,1.45,2.92
O=C(O)c1ccc(C(=O)O)c(C(=O)O)c1.[NH-]C1CCCCC1[NH-].[Pt+2],29.1,90.8,0.735 µM and 4.08 µM,18.8,14.8,53.9,3.45,68.2,8.64,39.9,7.73,50.2,2.92,60.8,4.29,43.5,14.3,61.4,4.97,48.1
CC1=NC=C(O)c2ccccc2O1,–,> 100,–,> 100,–,> 100,–,> 100,–,> 100,–,> 100,–,> 100,–,> 100,–,> 100,–,> 100
COC1=CC(=O)c2c(cc3c(c2O)-c2c(OC)cc4cc5c(c(O)c4c2OC(=O)CC(C)(O)C3)C(=O)CC(C)(O)C5)C1=O (stereo not given),–,5.58,–,5.56,–,4.12,–,2.94,–,2.15,–,10.3,–,6.49,–,3.67,–,2.71,–,4.36
CS(=N)(=O)CCC(N)P(=O)(O)O (stereo not given),–,> 100,–,> 100,–,> 100,–,> 100,–,> 100,–,> 100,–,> 100,–,> 100,–,> 100,–,> 100
O=C(Cc1ccccc1)N/N=C(/c1nc2ccc([N+](=O)[O-])cc2[nH]c1=O)C(O)c1ccc(C(O)/C(=N/NC(=O)Cc2ccccc2)c2nc3ccc([N+](=O)[O-])cc3[nH]c2=O)cc1 (stereo not given),–,> 100,–,> 100,–,> 100,–,> 100,–,> 100,–,> 100,–,> 100,–,> 100,–,> 100,–,> 100
COc1ccc2[nH]c3c4c(cc(-c5ccccc5)c3c2c1)C(=O)N(c1ccccc1)C4=O,–,> 100,–,> 100,–,74,–,> 92,–,55.2,–,3.56,–,39.6,–,16.5,–,> 100,–,> 100
O=C1C=CC(=O)N1c1ccc(I)cc1,–,41.2,–,9.73,–,46.6,–,42.9,–,52.7,–,60.2,–,> 100,–,> 57.6,–,40.7,–,35.3
Cc1cc(=O)oc2cc(OC(=O)Nc3ccccc3)ccc12,–,> 100,–,44.9,–,75.4,–,> 100,–,> 100,–,> 100,–,> 100,–,> 100,–,> 100,–,> 100
COc1ccc(/C=C/C(=O)c2ccc(Nc3nc(Nc4ccc(F)cc4)nc(Nc4ccc(Cl)cc4)n3)cc2)cc1,> 100,> 100,84 µM,> 100,31.1,88.7,> 100,> 100,> 100,> 100,> 100,> 100,> 100,> 100,2.23,19,41.3,> 100,> 100,> 100
O=C(Cc1ccc(Nc2ccnc(C(F)(F)F)c2)cc1)N/N=C/c1ccccc1O,3.05,> 60.9,1.9 µM,5.44,1.97,21,1.34,15.9,0.793,25.8,3.29,> 100,3.15,> 69.4,2.44,12.2,3.12,24.5,3.89,61.4
CCCCCC#COC1CC(C)CC[C@@H]1C(C)C (stereo not given in full),–,> 100,–,55,–,> 100,–,29.9,–,> 100,–,> 100,–,> 100,–,> 100,–,> 100,–,> 100
Cc1cc2c(cc1C)[n+](=O)c(C(=O)CC(=O)C(=O)Nc1ccccc1C(C)C)c(C)n2[O-],–,> 100,–,> 100,–,> 100,–,> 100,–,> 100,–,> 100,–,> 100,–,> 100,–,> 100,–,> 100
O=C(NS(=O)(=O)c1ccc(NC[C@H]2COCCO2)c([N+](=O)[O-])c1)c1ccc(N2CCN(CC3=C(c4ccc(Cl)cc4)CC4(CCC4)CC3)CC2)cc1Oc1cnc2[nH]ccc2c1,2.87,9.12,1.6 µM,4.83,1.43,3.05,1.85,3.63,1.82,3.7,2.47,9.81,2.18,5.06,1.88,4.03,1.77,3.4,1.58,3.39
